Measured values taken from patent US10597388B2, “Pyridazinone herbicides” (FMC CORPORATION, priority 2014, dated 2020).

What was measured:
Test in all cases: Test D controlled growth environment herbicide test, pre- and postemergence
Format in all cases: in vivo
[1] = system: lambsquarters (Chenopodium album)
How it was run: (§1)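 Rating is visual, 0–100 scale (100 = complete control), made against untreated plants 14–21 d after treatment in controlled growth conditions. Postemergence sprays went onto 1- to 4-leaf plants in peat medium; preemergence sprays onto silt loam after sowing; formulation included a surfactant.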

[2] = system: wheat, spring (spring wheat, Triticum aestivum)
How it was run: as §1

[3] = system: bluegrass (annual bluegrass, Poa annua)
How it was run: as §1

[4] = system: barley, winter (winter barley, Hordeum vulgare)
How it was run: as §1

[5] = system: buckwheat, wild (wild buckwheat, Polygonum convolvulus)
How it was run: as §1

[6] = system: galium (catchweed bedstraw, Galium aparine)
How it was run: as §1

[7] = system: windgrass (Apera spica-venti)
How it was run: as §1

[8] = system: pigweed (Amaranthus retroflexus)
How it was run: as §1

[9] = system: ryegrass, Italian (Italian ryegrass, Lolium multiflorum)
How it was run: as §1

[10] = system: blackgrass (Alopecurus myosuroides)
How it was run: as §1

[11] = system: bromegrass, downy (downy bromegrass, Bromus tectorum)
How it was run: as §1

[12] = system: foxtail, green (green foxtail, Setaria viridis)
How it was run: as §1

[13] = system: canarygrass (Phalaris minor)
How it was run: as §1

[14] = Postemergence, 31 g ai/ha, scale 0 to 100 (0 no effect, 100 complete control)
[15] = Postemergence, 125 g ai/ha, visual rating on scale 0 (no effect) to 100 (complete control), 14 to 21 d
[16] = Postemergence, 250 g ai/ha, scale 0 to 100 (0 no effect, 100 complete control)
[17] = Preemergence, 62 g ai/ha, scale 0 to 100 (0 no effect, 100 complete control)
[18] = Preemergence, 125 g ai/ha, scale 0 to 100 (0 no effect, 100 complete control)
[19] = Preemergence, 250 g ai/ha, scale 0 to 100, 0 no effect, 100 complete control
[20] = postemergence, 62 g ai/ha, scale 0 to 100, 0 no effect, 100 complete control

Cc1cc2ccccc2c(-c2c(O)c(C)nn(C)c2=O)c1C [Compound 34]
95: Plant response rating, Lambsquarters [1, 18] | Plant response rating, Lambsquarters [1, 19] | Plant response rating, Lambsquarters [1, 20] | Galium plant response rating [6, 14] | Plant response rating, Pigweed [8, 17] | Plant response rating, Ryegrass, Italian [9, 15] | Plant response rating, Ryegrass, Italian [9, 16] | Plant response rating, Ryegrass, Italian [9, 17] | Plant response rating, Ryegrass, Italian [9, 20] | Plant response rating, Canarygrass [13, 19]
70: Plant response rating, Windgrass [7, 19] | Plant response rating, Blackgrass [10, 15] | Plant response rating, Bromegrass, Downy [11, 16] | Plant response rating, Foxtail, Green [12, 16]
15: Plant response rating, Wheat, Spring [2, 15] | Plant response rating, Bluegrass [3, 15] | Plant response rating, Bluegrass [3, 20] | Plant response rating (scale of 0 to 100), Windgrass ([7]; Preemergence, 31 g ai/ha) | Plant response rating (scale of 0 to 100), Blackgrass ([10]; Preemergence, 31 g ai/ha)
20: Plant response rating, Bluegrass [3, 16] | Plant response rating, Barley, Winter [4, 16] | Plant response rating, Blackgrass [10, 17] | Bromegrass, Downy plant response rating [11, 14] | Plant response rating (scale of 0 to 100), Canarygrass ([13]; Preemergence, 31 g ai/ha)
50: Plant response rating, Bluegrass [3, 18] | Plant response rating, Windgrass [7, 20] | Plant response rating (scale of 0 to 100), Pigweed ([8]; Preemergence, 31 g ai/ha) | Plant response rating, Bromegrass, Downy [11, 17] | Plant response rating, Bromegrass, Downy [11, 18] | Plant response rating, Canarygrass [13, 17]
75: Plant response rating, Windgrass [7, 16] | Plant response rating (scale of 0 to 100), Ryegrass, Italian ([9]; Preemergence, 31 g ai/ha) | Plant response rating, Blackgrass [10, 16] | Plant response rating, Foxtail, Green [12, 19] | Plant response rating, Canarygrass [13, 15]
80: Plant response rating, Galium [6, 18] | Plant response rating, Bromegrass, Downy [11, 19]
25: Plant response rating, Wheat, Spring [2, 18] | Plant response rating, Bluegrass [3, 17] | Plant response rating, Windgrass [7, 17] | Blackgrass plant response rating [10, 14]
90: Lambsquarters plant response rating [1, 14] | Ryegrass, Italian plant response rating [9, 14] | Plant response rating, Canarygrass [13, 18]
45: Plant response rating, Wheat, Spring [2, 16] | Plant response rating, Foxtail, Green [12, 20]
35: Plant response rating, Galium [6, 17]
55: Plant response rating, Windgrass [7, 18] | Plant response rating, Foxtail, Green [12, 15] | Plant response rating (scale of 0 to 100), Foxtail, Green ([12]; Preemergence, 31 g ai/ha)
30: Plant response rating, Bromegrass, Downy [11, 20] | Canarygrass plant response rating [13, 14]
65: Barley, Winter plant response rating [4, 19] | Plant response rating, Windgrass [7, 15] | Blackgrass plant response rating [10, 19] | Plant response rating, Canarygrass [13, 20]
0: Wheat, Spring plant response rating [2, 14] | Plant response rating (scale of 0 to 100), Wheat, Spring ([2]; Preemergence, 31 g ai/ha) | Plant response rating, Wheat, Spring [2, 17] | Plant response rating (scale of 0 to 100), Bluegrass ([3]; Preemergence, 31 g ai/ha) | Plant response rating, Barley, Winter [4, 14] | Plant response rating, Barley, Winter [4, 15] | Plant response rating (scale of 0 to 100), Barley, Winter ([4]; Preemergence, 31 g ai/ha) | Plant response rating, Barley, Winter [4, 17] | Plant response rating, Barley, Winter [4, 18] | Plant response rating, Barley, Winter [4, 20] | Plant response rating (scale of 0 to 100), Buckwheat, Wild ([5]; Preemergence, 31 g ai/ha) | Plant response rating, Buckwheat, Wild [5, 18] | Plant response rating, Buckwheat, Wild [5, 19] | Plant response rating (scale of 0 to 100), Galium ([6]; Preemergence, 31 g ai/ha) | Plant response rating (scale of 0 to 100), Bromegrass, Downy ([11]; Preemergence, 31 g ai/ha)
40: Windgrass plant response rating [7, 14] | Plant response rating, Blackgrass [10, 18] | Plant response rating, Blackgrass [10, 20] | Plant response rating, Bromegrass, Downy [11, 15] | Foxtail, Green plant response rating [12, 14]
10: Plant response rating, Wheat, Spring [2, 20] | Bluegrass plant response rating [3, 14] | Plant response rating, Buckwheat, Wild [5, 17]
85: Plant response rating, Galium [6, 19] | Plant response rating, Canarygrass [13, 16]
100: Plant response rating, Lambsquarters [1, 15] | Plant response rating, Lambsquarters [1, 16] | Buckwheat, Wild plant response rating [5, 14] | Plant response rating, Buckwheat, Wild [5, 15] | Plant response rating, Buckwheat, Wild [5, 16] | Plant response rating, Buckwheat, Wild [5, 20] | Plant response rating, Galium [6, 15] | Plant response rating, Galium [6, 16] | Plant response rating, Galium [6, 20] | Pigweed plant response rating [8, 14] | Plant response rating, Pigweed [8, 15] | Plant response rating, Pigweed [8, 16] | Plant response rating, Pigweed [8, 18] | Plant response rating, Pigweed [8, 19] | Plant response rating, Pigweed [8, 20] | Plant response rating, Ryegrass, Italian [9, 18] | Plant response rating, Ryegrass, Italian [9, 19]
60: Plant response rating (scale of 0 to 100), Lambsquarters ([1]; Preemergence, 31 g ai/ha) | Plant response rating, Lambsquarters [1, 17] | Plant response rating, Wheat, Spring [2, 19] | Bluegrass plant response rating [3, 19] | Plant response rating, Foxtail, Green [12, 17] | Plant response rating, Foxtail, Green [12, 18]
